Results from US20230295260A1, “GLP RECEPTOR AGONISTS” (HEPTARES THERAPEUTICS LIMITED, priority 2020, published 2023).
Like-named read-outs stand apart in the source and are kept apart here. Starred links: 1 amine or outer side, 2 acyl side, 3 side chain; linkers in the order of their positions; H or OH if unused. Non-standard residues stand in square brackets, D forms with d. Residues, ends and D or L forms follow the SMILES beside them. Groups on a side chain read outwards from the residue. *: point of attachment. Malonyl(2,2-Me2,histaminyl) = CC(C)(C(=O)NCCc1cnc[nH]1)C(=O)*; Ala(1H-tetrazol-5-yl) = N[C@@H](Cc1nnn[nH]1)C(=O)O; C18 diacid = O=C(O)CCCCCCCCCCCCCCCCC(=O)*; γGlu = O=C(O)[C@H](CCC(=O)[*:2])N[*:1]; αMeL = CC(C)C[C@](C)(N)C(=O)O; Lauroyl = CCCCCCCCCCCC(=O)*; Nle = CCCC[C@H](N)C(=O)O; AEEA = NCCOCCOCC(=O)O; Aib = CC(C)(N)C(=O)O; Alloc = C=CCOC(=O)*; βAla = NCCC(=O)O

Legend:
human GLP2 receptor = molecular target: T1, human GLP2 receptor (Homo sapiens, UniProt O95838); experiment: cAMP accumulation assay (HTRF), functional agonism of human GLP2 receptor in HEK cells; settings: for Emax: HEK293, read-out: Human GLP-2R agonist cAMP Emax;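 on all read-outs here: HEK cells transduced via BacMam to express human GLP2 receptor, agonist-stimulated cAMP measured by HTRF after 45 min at 37 °C in HBSS with 0.5 mM IBMX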
T1 sequence (O95838 1-553): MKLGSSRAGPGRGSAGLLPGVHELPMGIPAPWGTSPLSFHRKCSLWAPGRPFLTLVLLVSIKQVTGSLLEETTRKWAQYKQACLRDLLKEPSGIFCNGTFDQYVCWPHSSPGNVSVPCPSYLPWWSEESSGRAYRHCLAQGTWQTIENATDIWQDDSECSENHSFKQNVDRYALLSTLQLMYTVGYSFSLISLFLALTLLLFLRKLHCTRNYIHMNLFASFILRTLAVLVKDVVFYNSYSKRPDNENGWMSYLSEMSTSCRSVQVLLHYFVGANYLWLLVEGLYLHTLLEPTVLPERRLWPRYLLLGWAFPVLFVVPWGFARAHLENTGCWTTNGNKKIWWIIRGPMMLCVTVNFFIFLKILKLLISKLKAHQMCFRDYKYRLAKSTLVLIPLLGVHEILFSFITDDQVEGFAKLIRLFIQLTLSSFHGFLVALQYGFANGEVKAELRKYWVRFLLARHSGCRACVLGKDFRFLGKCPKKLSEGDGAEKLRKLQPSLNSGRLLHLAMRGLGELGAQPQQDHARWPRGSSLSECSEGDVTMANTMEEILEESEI

human GLP1 receptor = molecular target: T2, human GLP1 receptor (Homo sapiens, UniProt P43220); experiment: cAMP accumulation assay (HTRF), functional agonism of human GLP1 receptor in HEK cells; format: cell-based; settings: for EC50: read-out: Human GLP-1R agonist cAMP pEC50 (converted)
T2 construct: expressed in transfected cells; host or cells: HEK cells, BacMam virus transduction
T2 sequence (P43220 24-463): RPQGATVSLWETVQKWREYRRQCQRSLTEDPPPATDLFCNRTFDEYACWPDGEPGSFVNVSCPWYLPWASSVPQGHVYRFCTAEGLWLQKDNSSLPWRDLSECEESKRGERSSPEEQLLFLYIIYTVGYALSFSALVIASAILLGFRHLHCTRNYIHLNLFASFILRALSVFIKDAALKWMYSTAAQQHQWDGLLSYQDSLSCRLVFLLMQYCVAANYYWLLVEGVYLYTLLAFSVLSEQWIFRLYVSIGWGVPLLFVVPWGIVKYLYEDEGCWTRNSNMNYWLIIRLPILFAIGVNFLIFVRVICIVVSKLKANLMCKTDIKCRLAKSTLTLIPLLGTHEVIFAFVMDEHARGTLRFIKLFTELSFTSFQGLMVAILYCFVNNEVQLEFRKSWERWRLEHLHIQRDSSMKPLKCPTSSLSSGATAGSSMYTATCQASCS

[1] = HEK293, HEK cells, human GLP1 receptor BacMam, 45 min 37° C., read-out: Human GLP-1R agonist cAMP Emax
[2] = HEK cells, human GLP1 receptor BacMam, 45 min 37° C.

Compound: C=CCOC(=O)NCCCC[C@H](NC(=O)[C@](C)(CC(C)C)NC(=O)[C@H](CC(=O)O)NC(=O)[C@H](CC(C)C)NC(=O)[C@@H](NC(=O)[C@@H](NC(=O)[C@@H](Cc1ccccc1)NC(=O)[C@H](CCCC)NC(=O)[C@H](CCC(=O)O)NC(=O)[C@H](CC(=O)O)NC(=O)[C@H](CO)NC(=O)[C@H](Cc1ccccc1)NC(=O)[C@H](CO)NC(=O)CNC(=O)[C@H](Cc1nn[nH]n1)NC(=O)C(C)(C)C(=O)NCCc1c[nH]cn1)[C@@H](C)O)[C@@H](C)CC)C(=O)N[C@@H](C)C(=O)N[C@@H](C)C(=O)N[C@@H](CCCCN)C(=O)N[C@@H](CC(=O)O)C(=O)N[C@@H](Cc1ccccc1)C(=O)N[C@H](C(=O)N[C@@H](CC(N)=O)C(=O)N[C@@H](Cc1c[nH]c2ccccc12)C(=O)N[C@@H](CC(C)C)C(=O)N[C@H](C(=O)N[C@@H](CCC(N)=O)C(=O)N[C@H](C(=O)N[C@@H](CCCCN)C(=O)N[C@H](C(=O)N[C@H](C(=O)N[C@@H](CC(=O)O)C(N)=O)[C@@H](C)O)[C@@H](C)CC)[C@@H](C)O)[C@@H](C)CC)[C@@H](C)CC [Example 19] ({Malonyl(2,2-Me2,histaminyl)}-[Ala(1H-tetrazol-5-yl)]GSFSDE[Nle][dF]TILD[αMeL]K(Alloc)AAKDFINWLIQTKITD-NH2)
- EC50 (human GLP2 receptor): 0.01 nM
- Emax (human GLP2 receptor): 102%
- Emax (human GLP1 receptor; [1]): 92.7%
- EC50 (human GLP1 receptor; [2]): 2.51 nM

Compound: CCCCCCCCCCCC(=O)NCCC(=O)NCCCC[C@H](NC(=O)[C@H](CC(N)=O)NC(=O)[C@H](CC(=O)O)NC(=O)[C@H](CC(C)C)NC(=O)[C@@H](NC(=O)[C@@H](NC(=O)[C@@H](Cc1ccccc1)NC(=O)[C@H](CCCC)NC(=O)[C@H](CCC(=O)O)NC(=O)[C@H](CC(=O)O)NC(=O)[C@H](CO)NC(=O)[C@H](Cc1ccccc1)NC(=O)[C@H](CO)NC(=O)[C@@H](C)NC(=O)[C@H](Cc1nn[nH]n1)NC(=O)C(C)(C)C(=O)NCCc1c[nH]cn1)[C@@H](C)O)[C@@H](C)CC)C(=O)NC(C)(C)C(=O)N[C@@H](C)C(=O)N[C@@H](CCCCN)C(=O)N[C@@H](CC(=O)O)C(=O)N[C@@H](Cc1ccccc1)C(=O)N[C@H](C(=O)N[C@@H](CC(N)=O)C(=O)N[C@@H](Cc1c[nH]c2ccccc12)C(=O)N[C@@H](CC(C)C)C(=O)N[C@H](C(=O)N[C@@H](CCC(N)=O)C(=O)N[C@H](C(=O)N[C@@H](CCCCN)C(=O)N[C@H](C(=O)N[C@H](C(=O)N[C@@H](Cc1ccccc1)C(N)=O)[C@@H](C)O)[C@@H](C)CC)[C@@H](C)O)[C@@H](C)CC)[C@@H](C)CC [Example 21] ({Malonyl(2,2-Me2,histaminyl)}-[Ala(1H-tetrazol-5-yl)][dA]SFSDE[Nle][dF]TILDNK([βAla-Lauroyl])[Aib]AKDFINWLIQTKITF-NH2; C-terminus assumed)
- Emax (human GLP2 receptor): 99.7%
- Emax (human GLP1 receptor; HEK293, read-out: Human GLP-1R agonist cAMP Emax): 91.5%

Compound: CCCC[C@H](NC(=O)[C@H](CCC(=O)O)NC(=O)[C@H](CC(=O)O)NC(=O)[C@H](CO)NC(=O)[C@H](Cc1ccccc1)NC(=O)[C@H](CO)NC(=O)CNC(=O)[C@H](Cc1nn[nH]n1)NC(=O)C(C)(C)C(=O)NCCc1c[nH]cn1)C(=O)N[C@H](Cc1ccccc1)C(=O)N[C@H](C(=O)N[C@H](C(=O)N[C@@H](CC(C)C)C(=O)N[C@@H](CC(=O)O)C(=O)N[C@@H](CC(C)C)C(=O)N[C@@H](CCCCNC(=O)CC[C@H](NC(=O)COCCOCCNC(=O)COCCOCCNC(=O)CCCCCCCCCCCCCCCCC(=O)O)C(=O)O)C(=O)N[C@@H](C)C(=O)N[C@@H](C)C(=O)N[C@@H](CCCCN)C(=O)N[C@@H](CC(=O)O)C(=O)N[C@@H](Cc1ccccc1)C(=O)N[C@H](C(=O)N[C@@H](CC(N)=O)C(=O)N[C@@H](Cc1c[nH]c2ccccc12)C(=O)N[C@@H](CC(C)C)C(=O)N[C@H](C(=O)N[C@@H](CCC(N)=O)C(=O)N[C@H](C(=O)N[C@@H](CCCCN)C(=O)N[C@H](C(=O)N[C@H](C(=O)N[C@@H](CC(=O)O)C(N)=O)[C@@H](C)O)[C@@H](C)CC)[C@@H](C)O)[C@@H](C)CC)[C@@H](C)CC)[C@@H](C)CC)[C@@H](C)O [Example 22] ({Malonyl(2,2-Me2,histaminyl)}-[Ala(1H-tetrazol-5-yl)]GSFSDE[Nle][dF]TILDLK([γGlu-AEEA-AEEA-C18 diacid])AAKDFINWLIQTKITD-NH2)
- EC50 (human GLP2 receptor): 0.0158 nM
- Emax (human GLP2 receptor): 101%
- Emax (human GLP1 receptor; [1]): 87.6%
- EC50 (human GLP1 receptor; [2]): 3.16 nM
